Experimental data: patent US20070243147A1, “Skin and/or Hair Composition Containing Compounds for Increasing The Tanning of Skin” (BEIERSDORF AG, priority 2004, published 2007)

System: primary normal human melanocytes
Assay: melanogenesis assay (14C-tyrosine incorporation) after 3 days of incubation
Assay type: cell-based
Details: for melanogenesis rate (measured as 14C-tyrosine incorporation) based on the untreated control (=100%): 3 days incubation, primary normal human melanocytes, mean (X transverse), n=4
Procedure: A melanogenesis assay was carried out after 3 days of incubation of primary normal human melanocytes with test substance compared to control. The figures listed in the table give the melanogenesis rates (measured as ^14C-tyrosine incorporation) based on the untreated control (=100%). It results from this that the melanogenesis, i.e., the process of melanine synthesis, rises to 156% or 150% when the melanocytes are cultivated in the presence of the compound (I) (2E,3S,4R)-2,3,4-trimethyl-3-[(3E,7E,11E)-3,8,12,16-tetramethylheptadeca-3,7,11,15-tetraen-1-yl]cyclohexanone (n=4).
Furthermore, a melanogenesis assay was carried out after 3 days of incubation of primary normal human melanocytes with test substance compared to control. The figures listed in the table give the melanogenesis rates (measured as ^14C-tyrosine incorporation) based on the untreated control (=100%). It results from this that the melanogenesis, i.e., the process of melanine synthesis, rises to 135% or 113% when the melanocytes are cultivated in the presence of the preferred compound (III) (4E,8E,12E,16E)-3,7,11,15-tetrahydroxy-18-(hydroxymethyl)-2,4,6,10,14,16,20-heptamethyldocosa-4,8,12,16-teraenoic acid (n=4).

| SMILES | melanogenesis rate (measured as 14C-tyrosine incorporation) based on the untreated control (=100%) (0.1 μg/ml test substance) | melanogenesis rate (measured as 14C-tyrosine incorporation) based on the untreated control (=100%) (1 μg/ml test substance) | increase of the synthesis of melanin (result in words) (tests to increase the synthesis of melanin) |
| --- | --- | --- | --- |
| CC(C)=CCC/C(C)=C/CC/C(C)=C/CC/C=C(\C)CC[C@@]1(C)[C@H](C)CCC(=O)[C@@H]1C [compound (I), (2R,3S,4R)-2,3,4-trimethyl-3-[(3E,7E,11E)-3,8,12,16-tetramethylheptadeca-3,7,11,15-tetraen-1-yl]cylcohexanone] | 150% | 156% | – |
| CCC(C)CC(/C=C(\C)C(O)C(C)/C=C/C(O)C(C)/C=C/C(O)C(C)/C=C(\C)C(O)C(C)C(=O)O)CO (centres unmarked) [compound (III), (4E,8E,12E, 16E)-3,7,11,15-tetrahydroxy-18-(hydroxymethyl)-2,4,6,10,14,16,20-heptamethyldocosa-4,8,12,16-tetraenoic acid] | 153% | 172% | particularly advantageous |
